# In article PMC5714945, “A homologue of the Parkinson’s disease-associated protein LRRK2 undergoes a monomer-dimer transition during GTP turnover” (Nature Communications, 2017):
# Assays:
# CtRoc-COR = target: T1, CtRoc-COR (Chlorobaculum tepidum, UniProt Q8KC98); assay: SEC-SAXS (conformational change); assay type: binding; conditions: pre-incubated with 1 mM, pH 7.5, 5 mM MgCl2
# T1 construct: gene CT1526; Roc-COR domains, residues 412-946, N-terminal His-tag (pProEX), E. coli BL21(DE3); dimer nucleotide-free, about 65 kDa monomer
# T1 sequence (Q8KC98 412-946): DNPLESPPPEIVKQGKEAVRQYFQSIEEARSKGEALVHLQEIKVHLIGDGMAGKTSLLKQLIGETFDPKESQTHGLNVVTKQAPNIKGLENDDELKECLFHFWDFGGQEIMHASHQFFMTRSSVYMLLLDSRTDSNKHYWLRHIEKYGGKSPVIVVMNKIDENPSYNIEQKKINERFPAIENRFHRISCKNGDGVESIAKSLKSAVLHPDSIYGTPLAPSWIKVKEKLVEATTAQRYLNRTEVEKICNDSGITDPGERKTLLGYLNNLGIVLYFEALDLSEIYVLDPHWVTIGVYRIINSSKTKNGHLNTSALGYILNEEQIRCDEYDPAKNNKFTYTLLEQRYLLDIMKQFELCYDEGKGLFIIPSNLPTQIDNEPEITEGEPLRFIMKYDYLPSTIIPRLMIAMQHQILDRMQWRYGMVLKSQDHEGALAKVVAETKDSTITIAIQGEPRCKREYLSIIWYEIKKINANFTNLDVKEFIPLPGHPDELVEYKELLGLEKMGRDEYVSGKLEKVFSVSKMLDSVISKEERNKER
# CtRoco = target: T2, CtRoco (Chlorobaculum tepidum, UniProt Q8KC98); assay: SEC-SAXS, AUC, negative-stain EM (conformational and oligomeric change); assay type: binding; conditions: pre-incubated with 1 mM (SAXS, EM), pH 7.5, 5 mM MgCl2
# T2 construct: gene CT1526; full length, residues 1-1102, N-terminal His-tag (pProEX), E. coli BL21(DE3); dimer nucleotide-free, monomer/dimer equilibrium with GppNHp
# T2 sequence (Q8KC98 1-1102): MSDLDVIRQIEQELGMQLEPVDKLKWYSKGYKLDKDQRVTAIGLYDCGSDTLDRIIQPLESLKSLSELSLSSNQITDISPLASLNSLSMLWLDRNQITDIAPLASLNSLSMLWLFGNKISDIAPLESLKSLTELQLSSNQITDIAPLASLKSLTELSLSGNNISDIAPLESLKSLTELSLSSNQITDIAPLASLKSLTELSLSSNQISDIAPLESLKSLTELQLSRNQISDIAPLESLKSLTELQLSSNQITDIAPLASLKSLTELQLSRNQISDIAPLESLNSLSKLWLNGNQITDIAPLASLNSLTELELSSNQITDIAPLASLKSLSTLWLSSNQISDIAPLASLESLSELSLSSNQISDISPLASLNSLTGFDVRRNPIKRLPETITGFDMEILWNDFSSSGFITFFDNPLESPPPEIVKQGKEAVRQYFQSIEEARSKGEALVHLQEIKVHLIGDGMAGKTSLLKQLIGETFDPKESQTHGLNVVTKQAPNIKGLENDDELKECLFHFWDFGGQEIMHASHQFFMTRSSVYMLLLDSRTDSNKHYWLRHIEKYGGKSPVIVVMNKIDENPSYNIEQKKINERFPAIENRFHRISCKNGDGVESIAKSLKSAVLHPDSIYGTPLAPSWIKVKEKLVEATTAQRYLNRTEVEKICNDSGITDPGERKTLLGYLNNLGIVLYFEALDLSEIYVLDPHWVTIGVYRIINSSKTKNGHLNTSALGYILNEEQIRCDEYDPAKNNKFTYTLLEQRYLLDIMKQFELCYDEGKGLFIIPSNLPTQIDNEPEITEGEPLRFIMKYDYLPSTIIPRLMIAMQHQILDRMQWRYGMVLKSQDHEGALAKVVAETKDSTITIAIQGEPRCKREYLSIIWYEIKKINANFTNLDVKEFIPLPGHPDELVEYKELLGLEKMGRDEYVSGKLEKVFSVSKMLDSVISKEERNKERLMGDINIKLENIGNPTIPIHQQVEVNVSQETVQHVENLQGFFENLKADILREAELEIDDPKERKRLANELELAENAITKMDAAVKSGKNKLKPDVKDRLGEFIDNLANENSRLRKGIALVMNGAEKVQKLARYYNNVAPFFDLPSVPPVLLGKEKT
structure (smiles),measurement,setting,value
Nc1nc2c(ncn2[C@@H]2O[C@H](COP(=O)(O)OP(=O)(O)O)[C@@H](O)[C@H]2O)c(=O)[nH]1 [GDP],SEC-SAXS (conformational change),CtRoc-COR,when CtRoc-COR is saturated with either GDP or GppNHp conformational changes are taking place
same,"SEC-SAXS, AUC, negative-stain EM (conformational and oligomeric change)",CtRoco,conformational changes occur in both the CtRoco GppNHp- and GDP-bound states
